# Experimental data as given in ChEMBL document CHEMBL4834486 (Bioorg Med Chem, 2021).
# How the values were obtained:
# MDA-MB-231 = test: Antiproliferative activity against human MDA-MB-231 cells assessed as inhibition of cell proliferation measured after 72 hrs by CCK-8 assay; format: functional, cell-based; conditions: MDA-MB-231, 72 h
# MCF-10A = test: Cytotoxicity against human MCF-10A cells assessed as inhibition of cell proliferation measured after 72 hrs by CCK-8 assay; format: cell-based
# MCF7 = test: Antiproliferative activity against human MCF7 cells assessed as inhibition of cell proliferation measured after 72 hrs by CCK-8 assay; format: functional, cell-based; conditions: MCF7, 72 h
Compound,IC50 (MDA-MB-231),IC50 (MCF-10A),IC50 (MCF7)
COc1ccc(-c2nc(COC(=O)[C@H](Cc3ccc(N(CCCl)CCCl)cc3)NC(=O)OC(C)(C)C)cc3c2[nH]c2ccccc23)cc1,19.6 µM,> 40 µM,5.31 µM
N[C@@H](Cc1ccc(N(CCCl)CCCl)cc1)C(=O)O [MELPHALAN],> 20 µM,> 40 µM,8.48 µM
COc1ccc(-c2nc(CO)cc3c2[nH]c2ccccc23)cc1,> 20 µM,> 40 µM,15.8 µM
OCc1cc2c(cn1)[nH]c1ccccc12,> 20 µM,> 40 µM,> 20 µM
COc1ccc(-c2nc(COC(=O)c3ccc(N(CCCl)CCCl)cc3)cc3c2[nH]c2ccccc23)cc1,14.5 µM,35.1 µM,2.35 µM
COC(=O)[C@H](Cc1ccc(N(CCCl)CCCl)cc1)NC(=O)CCC(=O)OCc1cc2c(cn1)[nH]c1ccccc12,> 20 µM,> 40 µM,> 20 µM
COC(=O)[C@H](Cc1ccc(N(CCCl)CCCl)cc1)NC(=O)CCC(=O)OCc1cc2c([nH]c3ccccc32)c(C)n1,> 20 µM,> 40 µM,> 20 µM
Cc1nc(COC(=O)[C@H](Cc2ccc(N(CCCl)CCCl)cc2)NC(=O)OC(C)(C)C)cc2c1[nH]c1ccccc12,17.5 µM,> 40 µM,4.9 µM
COC(=O)[C@H](Cc1ccc(N(CCCl)CCCl)cc1)NC(=O)CCCC(=O)OCc1cc2c([nH]c3ccccc32)c(C)n1,> 20 µM,> 40 µM,> 20 µM
Cc1nc(COC(=O)c2ccc(N(CCCl)CCCl)cc2)cc2c1[nH]c1ccccc12,7.48 µM,26.4 µM,3.78 µM
